In US8053583B2, “Anti-cancer compound and manufacturing method thereof” (National Defense Medical Center, priority 2008, dated 2011):
“Also recorded” adds a separate entry of the source.

Columns and labels:
[1] = MTT colorimetric assay, normal SVG p12 cells; settings: human, SVG p12 cells (normal human brain astroglia), Cell viability (%) SVG p12, conc. 10 μM, 46 hours with drug, then 2 hours MTT, ratio to control group without drug
Description: (§1) MTT (tetrazole) assay used to determine tumor viability is based on measurement of the activity of dehydrogenase to determine cell growth conditions. In live cells, dehydrogenase in active mitochondria converts yellow MTT [3-(4,5-dimethylthiazol-2-yl)-2,5-diphenyltetra zolium bromide] into purple formazan on the reductive cleavage of its tetrazolium ring. The formazan crystal is examined under the microscope. While the mitochondria in dead cells are without active dehydrogenase, no crystal is generated and the color remains yellow. After adding MTT into cell cultures and reacting for 2 hours, the amount of generated formazan precipitate is proportional to total amount of dehydrogenase. Removing the culture medium, add DMSO to dissolve the purple formazan precipitate. Then measure the absorbance of the precipitate by is measured by the spectrophotometer at 560/670 nm so as to learn inhibition effect of drugs acted on normal cells and tumor cells.
(§2) GBM 8401, GBM 8901 (human brain glioblastoma) and SVG p12 (human brain astroglia)cells line are selected to be used in 96 well petri dishes. Each well is filled into the same amount of cells-about 5000 cells per well. After being cultured for 24 hours and cells anchor/attach, the 96 wells are divided into two groups-an experimental group and a control group containing no samples. The samples are diluted into 10 μg/mL by culture medium. Take 200 μL of each sample and add into the experimental group and the control group is added with 200 μL culture medium without samples. After 46 hours of culture, each well is added with 10 μL MTT solution, incubate cells at 37° C., 5% CO2 for 2 hours.
(§3) Then each well is added with 100 μL, dissolving formazan. Shaking for 10 minutes and measure the absorbance at 560/670 nm of the sample by the spectrometer. The data of the experimental group is divided by the data of the control group to get the estimated cell viability.
(§4) Three cell lines-GBM 8401, GBM 8901, SVG p12 (normal) are used in cytotoxicity tests of 1,8-bis-substituted amidoanthraquinone. After reacting with the drug for 46 hours, the cells are reacted with certain amount of MTT solution. After 2 hours, DMSO is used to dissolve formazan and O.D. (optical density) at 560/670 nm is measured. Then calculate the radios of the experimental groups (with drugs) to the control groups (without drugs).

[2] = test system: GBM 8401 (human brain glioblastoma) cells; assay: MTT colorimetric assay, GBM 8401 cells; settings: for viability at 10 µM: Homo sapiens, read-out: Cell viability (%) GBM 8401, conc. 10 μM; for inhibition of proliferation of tumor cells GBM 8401 (in words): primary screening, 10 μM, criterion viability less than 80%
Description: as §1, §2, §3, §4

[3] = test system: GBM 8901 (human brain glioblastoma) cells; assay: MTT colorimetric assay, GBM 8901 cells; settings: for viability at 10 µM: Homo sapiens, read-out: Cell viability (%) GBM 8901, conc. 10 μM; for inhibition of growth of tumor cells GBM 8901 (in words): primary screening, 10 μM, criterion viability less than 80%
Description: as §1, §2, §3, §4

[4] = 46 hours with drug, then 2 hours MTT, ratio to control group without drug
[5] = conc. 10 μM, 46 hours with drug, then 2 hours MTT, ratio to control group without drug

Molecule	viability at 46 h, 10 μM [1] [%]	melting point [°C]	viability at 10 µM [2, 4] [%]	viability at 10 µM [3, 4] [%]	inhibition of proliferation of tumor cells GBM 8401 (in words) [2]	inhibition of growth of tumor cells GBM 8901 (in words) [3]	Cell viability (%) GBM 8401 [2, 5] [%]	Cell viability (%) GBM 8901 [3, 5] [%]
CCCN(C)CC(=O)Nc1cccc2c1C(=O)c1c(NC(=O)CN(C)CCC)cccc1C2=O [Compound 3s]	132 ± 3	159 to 160	103 ± 9	107 ± 9	–	–	–	–
CCCN(CCC)CCC(=O)Nc1cccc2c1C(=O)c1c(NC(=O)CCN(CCC)CCC)cccc1C2=O [Compound 4g]	4	129 to 130	5 ± 1	8 ± 2	–	–	–	–
CN(C)CCNCCC(=O)Nc1cccc2c1C(=O)c1c(NC(=O)CCNCCN(C)C)cccc1C2=O [Compound 4e, 1,8-Bis[2-(dimethylethanediamino)propionamido]anthraquinone]	13 ± 3	100 to 102	14 ± 2	10 ± 5	–	–	–	–
CCN(CC)CCC(=O)Nc1cccc2c1C(=O)c1c(NC(=O)CCN(CC)CC)cccc1C2=O [Compound 4a, 1,8-Bis[3-(diethylamino)propionamido]anthraquinone]	3	160 to 161	4	3 ± 2	–	–	–	–
CCN(C)CCC(=O)Nc1cccc2c1C(=O)c1c(NC(=O)CCN(C)CC)cccc1C2=O [Compound 4k]	2	129 to 130	1 ± 3	7 ± 3	–	–	–	–
COC(=O)[C@H]1CCCN1CC(=O)Nc1cccc2c1C(=O)c1c(NC(=O)CN3CCC[C@H]3C(=O)OC)cccc1C2=O [Compound 3c, 1,8-Bis[2-(prolinemethyl ester)acetamido]anthraquinone]	121 ± 5	170 to 171	83 ± 15	96 ± 3	–	–	–	–
CC(C)CNCCC(=O)Nc1cccc2c1C(=O)c1c(NC(=O)CCNCC(C)C)cccc1C2=O [Compound 4b, 1,8-Bis[3-(isobutylamino)propionamido]anthraquinone]	4	224 to 225	4 ± 1	7 ± 3	–	–	–	–
CNCCC(=O)Nc1cccc2c1C(=O)c1c(NC(=O)CCNC)cccc1C2=O [Compound 4h]	4	233 to 234	9 ± 2	10 ± 1	–	–	–	–
CN(C)CCC(=O)Nc1cccc2c1C(=O)c1c(NC(=O)CCN(C)C)cccc1C2=O [Compound 4f]	4 ± 3	116 to 117	3	7 ± 3	–	–	–	–
CC(C)NCC(=O)Nc1cccc2c1C(=O)c1c(NC(=O)CNC(C)C)cccc1C2=O [Compound 3o, 1,8-Bis[2-(isopropylamino)acetamido]anthraquinone]	4 ± 1	–	4 ± 1	5 ± 1	inhibit proliferation; also recorded: quite good inhibition effects	inhibit growth	–	–
CC(C)CNCC(=O)Nc1cccc2c1C(=O)c1c(NC(=O)CNCC(C)C)cccc1C2=O [Compound 3k, 1,8-Bis[2-(isobutylamino)acetamido]anthraquinone]	–	–	95 ± 12	57 ± 16	–	inhibit growth	–	–
CCNCC(=O)Nc1cccc2c1C(=O)c1c(NC(=O)CNCC)cccc1C2=O [Compound 3p, 1,8-Bis[2-(ethanamino)acetamido]anthraquinone]	3 ± 1	–	2 ± 1	4 ± 1	inhibit proliferation; also recorded: quite good inhibition effects	inhibit growth	–	–
CC(C)(C)OC(=O)NCCNCCC(=O)Nc1cccc2c1C(=O)c1c(NC(=O)CCNCCNC(=O)OC(C)(C)C)cccc1C2=O [Compound 4d, 1,8-Bis[2-(N-Boc-ethanediamino)propionamido]anthraquinone]	8 ± 1	101 to 102	10 ± 5	4	–	–	–	–
COC(=O)CN(C)CC(=O)Nc1cccc2c1C(=O)c1c(NC(=O)CN(C)CC(=O)OC)cccc1C2=O [Compound 3f, 1,8-Bis[2-(sacrocinemethyl ester)acetamido]anthraquinone]	172 ± 2	129 to 130	130 ± 20	107 ± 5	–	–	–	–
(S)-1,8-Bis[2-(phenylglycin methyl ester)acetamido]anthraquinone [Compound 3j]	–	–	–	–	inhibit proliferation; also recorded: quite good inhibition effects	inhibit growth	–	–
COC(=O)CNCC(=O)Nc1cccc2c1C(=O)c1c(NC(=O)CNCC(=O)OC)cccc1C2=O [Compound 3a, 1,8-Bis[2-(glycinmethyl ester)acetamido]anthraquinone]	93 ± 6	173 to 174	95 ± 10	104 ± 2	–	–	–	–
COC(=O)[C@H](C)NCC(=O)Nc1cccc2c1C(=O)c1c(NC(=O)CN[C@H](C)C(=O)OC)cccc1C2=O [Compound 3i, (D)-1,8-Bis[2-(alalinemethyl ester)acetamido]anthraquinone]	–	–	–	–	inhibit proliferation; also recorded: quite good inhibition effects	–	64 ± 13	99 ± 11
CCCN(CCC)CC(=O)Nc1cccc2c1C(=O)c1c(NC(=O)CN(CCC)CCC)cccc1C2=O [Compound 3n, 1,8-Bis[2-(dipropylamino)acetamido]anthraquinone]	73 ± 30	–	106 ± 24	73 ± 5	–	inhibit growth	–	–
CCN(C)CC(=O)Nc1cccc2c1C(=O)c1c(NC(=O)CN(C)CC)cccc1C2=O [Compound 3r, 1,8-Bis[2-(ethylmethylamino)acetamido]anthraquinone]	125 ± 7	186 to 187	90 ± 2	98 ± 12	–	–	–	–
CN(C)CC(=O)Nc1cccc2c1C(=O)c1c(NC(=O)CN(C)C)cccc1C2=O [Compound 3m, 1,8-Bis[2-(dimethylamino)acetamido]anthraquinone]	> 80	–	60 ± 5	84 ± 9	inhibit proliferation; also recorded: quite good inhibition effects	–	–	–
COC(=O)[C@H](CC(C)C)NCC(=O)Nc1cccc2c1C(=O)c1c(NC(=O)CN[C@H](CC(C)C)C(=O)OC)cccc1C2=O [Compound 3g, 1,8-Bis[2-(leucinemethyl ester)acetamido]anthraquinone]	153 ± 11	238 to 239	111 ± 8	89 ± 4	–	–	–	–
COC(=O)[C@H](COC(C)(C)C)NCC(=O)Nc1cccc2c1C(=O)c1c(NC(=O)CN[C@H](COC(C)(C)C)C(=O)OC)cccc1C2=O [Compound 3t, 1,8-Bis[2-(tert-butyl-serinemethyl ester)acetamido]anthraquinone]	> 80	–	98 ± 19	69 ± 4	–	inhibit growth	–	–
COC(=O)[C@@H](NCC(=O)Nc1cccc2c1C(=O)c1c(NC(=O)CN[C@@H](C(=O)OC)C(C)C)cccc1C2=O)C(C)C [Compound 3d, (L)-1,8-Bis[2-(valinemethyl ester)acetamido]anthraquinone]	87 ± 7	150 to 151	99 ± 40	97 ± 22	–	–	–	–
CCN(CC)CC(=O)Nc1cccc2c1C(=O)c1c(NC(=O)CN(CC)CC)cccc1C2=O [Compound 3l, 1,8-Bis[2-(diethylamino)acetamido]anthraquinone]	123 ± 13	228 to 229	91 ± 17	94 ± 26	–	–	–	–
CC(C)NCCC(=O)Nc1cccc2c1C(=O)c1c(NC(=O)CCNC(C)C)cccc1C2=O [Compound 4i]	5 ± 1	105 to 106	2 ± 1	8 ± 2	–	–	–	–
CN(C)CCCNCCC(=O)Nc1cccc2c1C(=O)c1c(NC(=O)CCNCCCN(C)C)cccc1C2=O [Compound 4j, 1,8-Bis[2-(dimethylpropanediamino)propionamido]anthraquinone]	33 ± 16	107 to 108	9 ± 2	22 ± 9	–	–	–	–
O=C(CNCc1cccc(C(F)(F)F)c1)Nc1cccc2c1C(=O)c1c(NC(=O)CNCc3cccc(C(F)(F)F)c3)cccc1C2=O [Compound 3q, 1,8-Bis [2-(3-(trifluoromethyl)benzylamino)acetamido]anthraquinone]	135 ± 20	190 to 191	120 ± 26	83 ± 10	–	–	–	–
O=C(CCNCc1cc(F)cc(F)c1)Nc1cccc2c1C(=O)c1c(NC(=O)CCNCc3cc(F)cc(F)c3)cccc1C2=O [Compound 4c, 1,8-Bis[3-(3,5-difluorobenzylamino)propionamido]anthraquinone]	> 80	190 to 191	14 ± 1	11 ± 9	–	–	–	–
